Data taken from US10662210B2, “Compositions and methods comprising osmium for the treatment of cancers” (Massachusetts Institute of Technology, priority 2014, dated 2020).
Like-named read-outs stand apart in the source and are kept apart here.

Columns and labels:
Type in all cases: cell-based, human
A2780 cells = assay: Cytotoxicity MTT assay with pathway and cell death inhibitors; settings: for effect of chloroquine and IM-54 on potency: inhibitors 10 μM; for effect of p53 inhibitors on toxicity: pifithrin-α and pifithrin-μ, both 10 μM; for IC50: 72 hours incubation
Experimental: (§1) This finding led to the investigation of the possibility that 4 may induce endoplasmic reticulum (ER) stress. Co-administration of 4 and salubrinal (10 μM), a known ER stress inhibitor, reduced the cytotoxicity of 4 in A2780 cells. […] To further validate the ER as the main target for 4, the expression of proteins related to the unfolded protein response (UPR) was monitored. […] ER membrane expansion is widely associated with ER stress. With this fact in mind the ER size of A2780 cells upon incubation with 4 were examined using fluorescence microscopy. Relative to untreated controls (FIG. 3B), cells exposed to 4 (10 μM) for 4 h had 25.1% larger ER coverage (FIG. 3C). The ER size relative to the whole cell of the untreated controls was about 30% and the ER size relative to the whole cell of the treated samples was about 55%.
(§2) Having established the intracellular targets of 2 and 4, the role of p53, a cell cycle and apoptosis regulator, in the cellular responses evoked was investigated. […] Therefore, p53 played a fundamental role in coordinating the cellular response to 2-induced DNA damage. […] (FIG. 13). […] To relate p53 to potency, cytotoxicity studies were conducted in the presence of p53 inhibitors pifithrin-α and pifithrin-μ. (both 10 μM). […] The IC50 values of compound 2 in the absence and presence of p53 inhibitor pifithrin-μ after 72 hours incubation was about 2 μM and about 30 μM, respectively.
The colorimetric MTT assay was used to determine the toxicity of the osmium complexes and cisplatin. Cells (2×10^3) were seeded in each well of a 96-well plate. After incubating the cells overnight, various concentrations of test compound (0.3-100 μM) were added and incubated for 72 h (total volume 200 μL). The test compounds were prepared as 10 mM solutions in DMSO and diluted using media. The final concentration of DMSO in each well was 0.5% and this amount was present in the untreated control as well. Cisplatin was prepared as a 5 mM solution in PBS and diluted further using media. After 72 h, the medium was removed, 200 μL of a 0.4 mg/mL solution of MTT in DMEM or RPMI was added, and the plate was incubated for an additional 1-2 h. The DMEM/MTT or RPMI/MTT mixture was aspirated and 200 μL of DMSO was added to dissolve the resulting purple formazan crystals. The absorbance of the solution wells was read at 550 nm. Absorbance values were normalized to DMSO-containing control wells and plotted as concentration of test compound versus % cell viability. IC50 values were interpolated from the resulting dose dependent curves. The reported IC50 values are the average from at least three independent experiments, each of which consisted of six replicates per concentration level.
For specific pathway and cell death inhibitor assays, inhibitors of p53 (pifithrin-α, 10 μM and pifithrin-μ, 10 μM), ER stress (salubrinal, 10 μM), necrosis (IM-54, 10 μM), and autophagocytosis (chloroquine, 10 μM) were added to cells and incubated for 0-1 h prior to treatment with the test compounds.

[1] = system: phosphorylated eIF2α and CHOP in A2780 cells; assay: Immunoblotting analysis, unfolded protein response; settings: 72 hours
Experimental: as §1
A2780 cells (5×10^5 cells) were incubated with the osmium complexes (concentrations, μM) for 72 h at 37° C. Cells were washed with PBS, scraped into SDS-PAGE loading buffer (64 mM Tris-HCl (pH6.8)/9.6% glycerol/2% SDS/5% β-mercaptoethanol/0.01% Bromophenol Blue), and incubated at 95° C. for 10 min. […] After incubation with horseradish peroxidase-conjugated secondary antibodies (Cell Signalling Technology), immune complexes were detected with the ECL detection reagent (BioRad) and analyzed using an Alpha Innotech ChemiImager™ 5500 fitted with a chemiluminescence filter.

[2] = system: p53, p21 and BAX in A2780 cells; assay: Immunoblotting analysis, p53 pathway; settings: for p53 expression: vs untreated cells
Experimental: as §2
A2780 cells (5×10^5 cells) were incubated with the osmium complexes (concentrations, μM) for 72 h at 37° C. Cells were washed with PBS, scraped into SDS-PAGE loading buffer (64 mM Tris-HCl (pH6.8)/9.6% glycerol/2% SDS/5% β-mercaptoethanol/0.01% Bromophenol Blue), and incubated at 95° C. for 10 min. Whole cell lysates were resolved by 4-20% sodium dodecylsulphate polyacylamide gel electrophoresis (SDS-PAGE; 200 V for 25 min) followed by electro transfer to polyvinylidene difluoride membrane, PVDF (350 mA for 1 h). Membranes were blocked in 5% (w/v) non-fat milk in PBST (PBS/0.1% Tween 20) and incubated with the appropriate primary antibodies (Cell Signalling Technology and Santa Cruz). After incubation with horseradish peroxidase-conjugated secondary antibodies (Cell Signalling Technology), immune complexes were detected with the ECL detection reagent (BioRad) and analyzed using an Alpha Innotech ChemiImager™ 5500 fitted with a chemiluminescence filter.

`[N]#[Os]1([Cl])([Cl])([Cl])[N]2C=CC(c3ccccc3)=c3ccc4c(c32)[N]1C=CC=4c1ccccc1` [Complex 4, OsN(4,7-diphenyl-1,10-phenanthroline)Cl3] was tested, and the “effect of chloroquine and IM-54 on potency” value (A2780 cells) was “little effect”, the “effect of p53 inhibitors on toxicity” value (A2780 cells) was “unaffected” and the “IC50 increase on co-administration of salubrinal compared to compound alone” value (A2780 cells; salubrinal 10 μM) was 13.3 fold. For the same molecule, the “phosphorylated eIF2α and CHOP expression” value [1] was “upregulated”, the “p21 and BAX expression” value [2] was “remained fairly constant” and the p53 expression [2] was “did not increase markedly”.

`[N]#[Os]1([Cl])([Cl])([Cl])[N]2C=CC=c3ccc4c(c32)[N]1C=CC=4` [Complex 2, OsN(1,10-phenanthroline)Cl3] was tested, and the IC50 (A2780 cells; read-out: IC50 in the absence of pifithrin-α) was ~4.5 µM, the IC50 (A2780 cells; read-out: IC50 in the absence of pifithrin-μ) was ~2 µM and the “effect of chloroquine and IM-54 on potency” value (A2780 cells) was “little effect”. For the same molecule, the IC50 (A2780 cells; pifithrin-α 10 μM, read-out: IC50 in the presence of pifithrin-α) was ~2 µM, the “effect of p53 inhibitors on toxicity” value (A2780 cells) was “increased significantly” and the IC50 (A2780 cells; pifithrin-μ 10 μM, read-out: IC50 in the presence of pifithrin-μ) was ~30 µM. For the same molecule, the “effect of salubrinal on toxicity” value (A2780 cells; salubrinal 10 μM) was “limited effect”, the “phosphorylated eIF2α and CHOP expression” value [1] was “little effect” and the “p21 and BAX expression” value [2] was “dose-dependent increase”. The p53 expression [2] was “higher p53 expression”.
